Data from patent US4885239A, “Rapid differentiation of bacteria using polyether antibiotics” (Eastman Kodak Company, priority 1986, dated 1989).

How the values were obtained:
[1] = tested on: S. aureus; experiment: dye formation from RIND VII in presence of calimycin, S. aureus; assay type: cell-based, Staphylococcus aureus (ATCC 25923); parameters: key: 0: no dye formation; +/-: faint dye formation; 1+: light dye formation; 2+: moderate dye formation; 3+: strong dye formation; 4+: very strong dye formation; settings: calimycin 10^-3 molar, calcium chloride
Procedure: (§1) gram-negative bacteria Enterobacter cloacae (ATCC 23355), Escherichia coli (ATCC 25922), Proteus vulgaris (ATCC 13315), Klebsiella pneumoniae (ATCC 13883) and Pseudomonas aeruginosa (ATCC 27853), and gram-positive bacteria Staphylococcus aureus (ATCC 25923) and Streptococcus pyogenes (ATCC 19615), and brain heart infusion (BHI) broth from Difco Laboratories (Detroit, Mich.),
(§2) Bacterial suspensions were prepared by growing the cells in BHI to stationary phase overnight at 37° C. P. aeruginosa was grown with agitation. […]
(§3) TERGITOL 7 anionic surfactant was used to differentiate viable bacteria according to the prior art method. […] The amount of dye formed was then determined visually and graded as follows: 0 indicates no dye formation, +/- indicates faint dye formation, 1+ indicates light dye formation, 2+ indicates moderate dye formation, 3+ indicates strong dye formation, and 4+ indicates very strong dye formation.
(§4) Calimycin, a polyether antibiotic, was similarly used with RIND VII in the differentiation of bacteria. Assays were performed as described above, except that 25 μl of 1 molar calcium chloride solution was added to each test solution and the P. aeruginosa response was measured in the presence of 10% yeast extract as the carbon source instead of glucose. […]

[2] = tested on: S. aureus (gram +); experiment: change in optical density with tetrazolium salt MTT (Example 5), S. aureus; assay type: cell-based, Staphylococcus aureus (ATCC 25923); settings: 540 nm, 37° C., without antibiotic 0.505
Procedure: as §1
Bacterial suspensions were prepared by growing the cells in BHI to stationary phase overnight at 37° C. P. aeruginosa was grown with agitation. About 40 ml of overnight cultures were centrifuged, decanted and washed once with 0.05 molar potassium phosphate buffer or 0.05 molar N-2-hydroxyethylpiperazine-N'-2-ethanesulfonic acid (HEPES) buffer, pH 7.8, and resuspended in buffer.
The reducible compound solution was prepared with 3-(4,5-dimethyl-2-thiazolyl)-2,5-diphenyl-2H-tetrazolium bromide (MTT) (200 μl of 5 mg/ml methanol), 200 μl glucose solution (10% in water), 200 μl trimethyl-1,4-benzoquinone ETA (1.5 mg/ml methanol) and 12 ml of HEPES buffer (0.05 molar, pH 7.8).
Test solutions were prepared with the following: 50 μl HEPES buffer, 50 μl polyether antibiotic A23187 (free acid, 0.01 molar in methanol), 10 μl calcium chloride (1 molar) (serial dilutions of buffer and antibiotic were performed to obtain various antibiotic concentrations), 50 μl of the appropriate cell suspension, E. coli (about 10^8 cells/ml) or S. aureus (about 10^8 cells/ml), and 200 μl of the MTT solution. Control solutions were prepared as described in previous Examples.
Optical density measurements were obtained at 540 nm using a standard spectrophotometer and the change in optical density (ΔOD) was determined after 30 minutes at 37° C. The resulting data are shown in Table VII below for several concentrations of antibiotic. It is clear from the data that the composition of this example was useful for differentiating bacteria.

[3] = tested on: E. coli (gram -); experiment: inhibition of the reduction of RIND XXXV in dry analytical element (Example 6), E. coli; assay type: cell-based, Escherichia coli (ATCC 25922); settings: calcium chloride, 30 minutes, 37° C.
Procedure: as §1, §2
Optical density readings (OD) were made at 635 nm at 0 minutes and after incubation at 37° C. for 30 minutes for all solutions, and the change (ΔOD) was determined. […] The corrected percent inhibition was calculated by dividing the difference between ΔOD obtained from a Control test without antibiotic and the ΔOD of the test, by the ΔOD of the Control without antibiotic. All readings were corrected by subtracting readings of the appropriate background control. […]
The relative fluorescence (excitation 540 nm, emission 620 nm) was measured using a standard spectrophotometer, and the change in relative fluorescence was determined after 30 minutes at 37° C. […]

[4] = tested on: S. pyogenes; experiment: dye formation from RIND VII in presence of calimycin, S. pyogenes; assay type: cell-based, Streptococcus pyogenes (ATCC 19615); parameters: key: 0: no dye formation; +/-: faint dye formation; 1+: light dye formation; 2+: moderate dye formation; 3+: strong dye formation; 4+: very strong dye formation; settings: calimycin 10^-3 molar, calcium chloride
Procedure: as §1, §2, §3, §4

[5] = tested on: P. aeruginosa; experiment: dye formation from RIND VII in presence of calimycin, P. aeruginosa; assay type: cell-based, Pseudomonas aeruginosa (ATCC 27853); parameters: key: 0: no dye formation; +/-: faint dye formation; 1+: light dye formation; 2+: moderate dye formation; 3+: strong dye formation; 4+: very strong dye formation; settings: calimycin 10^-3 molar, calcium chloride, 10% yeast extract instead of glucose
Procedure: as §1, §2, §3, §4

For `CNc1ccc2oc(C[C@H]3O[C@@]4(CC[C@H]3C)O[C@H]([C@H](C)C(=O)c3ccc[nH]3)[C@H](C)C[C@H]4C)nc2c1C(=O)O` [calimycin, Calimycin], the dye formation ([1]; 15 Minutes) was 0, the dye formation ([1]; 30 Minutes) was 0 and the “Δ OD after 30 Min.” value ([2]; antibiotic 1 × 10^-4 molar) was 0.089. The “Δ OD after 30 Min.” value ([2]; antibiotic 2 × 10^-4 molar) was 0.096, the “Δ OD after 30 Min.” value ([2]; antibiotic 4 × 10^-4 molar) was 0.065 and the “Δ OD after 30 Min.” value ([2]; antibiotic 8 × 10^-4 molar) was 0.028. The “Corrected Percent Inhibition” value [3] was 11.5%, the dye formation ([4]; 15 Minutes) was 0 and the dye formation ([4]; 30 Minutes) was 0. For the same compound, the dye formation ([5]; 15 Minutes) was 2+ and the dye formation ([5]; 30 Minutes) was 4+.
